According to patent US20100004168A1, “Use of Crystallin For The Modulation of Angiogenesis” (The Johns Hopkins University, priority 2006, published 2010):
“Also recorded” adds a separate entry of the source.

Key:
[1] = system: Human astrocyte cell line (SVG); assay: VEGF and crystallin immunostaining in cultured astrocytes exposed to 3-nitropropionic acid; assay type: cell-based; settings: 10 μM 3-NP
Method: Human astrocyte cell line (SVG) was treated with 10 μM 3-NP, and cells were harvested for immunostaining with antibodies to VEGF and crystallins after 6, 12, and 24 hours. […] Fluorescence with both of the antibodies is increased after 12 hours of exposure to 3-NP in culture. […] Nuclei were counterstained with DAPI.
It has been shown that astrocytes are sensitive to hypoxia, which induces them to release VEGF (Chow et al., 2001; Sandercoe et al., 2003). To determine if astrocytes also express β- and γ-crystallins in response to hypoxia, 3-nitropropionic acid, an irreversible inhibitor of mitochondrial succinate dehydrogenase activity was used (Cavaliere et al., Neurochem Int 38:189-197, 2001). It can be considered a model substance to study hypoxic neuronal damage (Riepe et al., Neurosci Lett 211:9-12, 1996).
The SVG cell line used in this study was derived from human fetal astrocytes transformed with SV40 large T antigen (Major et al., J Biol Chem 278:13512-13519, 1985; Tornatore et al., Cell Transplant 5:145-163, 1996). Cultures of the human fetal astrocyte cell line (SVG) were maintained in Dulbecco's modified Eagle's medium with 2 mM L-glutamine, 10% fetal bovine serum, and streptomycin penicillin-fungizone solutions. Cells grown in 60-mm dishes were treated with 10 μM 3-nitropropionic acid (3NP) for 6, 12, and 24 hours at 37° C. and then fixed with paraformaldehyde (4%) for 15 minutes and blocked with 3% BSA at 4° C. overnight. The fixed cells were processed following standard techniques for immunofluorescence using VEGF and crystallin antibodies as indicated earlier.

[2] = system: HUVEC (Human umbilical vein endothelial cells); assay: Three-dimensional tube formation assay of HUVEC on Matrigel; assay type: cell-based; settings: HUVEC on Matrigel treated with purified proteins (crystallins 0.5 μg/ml), vs controls
Excerpt: In order to better understand the functional role of β/γ-crystallins in vascular remodeling, HUVEC (Human umbilical vein endothelial cells) were established in culture. HUVEC differentiation into tube-like structures in three dimensional Matrigel cultures has been commonly used as a model system to studying angiogenesis (Edelman et al. Exp. Eye Res. 80(2): 249-58, 2005; Xin et al. J. Biol. Chem. 274(13): 9116-21, 1999). After plating HUVEC onto Matrigel, the cells differentiated to form tubes and a capillary-like network at the minimum seeding density of 5×10^3 cells/well (FIGS. 20A-20F). These differentiated cells form tubes and express crystallins (FIGS. 21A and 21B).
The effect of β/γ crystallins and VEGF on HUVEC tube formation and regression was examined. VEGF protein used in this study was purchased from R&D Systems (Minneapolis, Minn.) and the polyclonal antibody was from Santa Cruz Biotechnology (Santa Cruz, Calif.). To prepare the crystallin proteins, lenses dissected from bovine eyes were homogenized in 7 volumes of 0.05M Tris buffer, pH 7.4 containing 0.1M KCl, 10 mM 2-mercaptoethanol and 0.02% NaN3. […] Fractions were collected and peaks analyzed by SDS-PAGE. […]
The cells were exposed to 0.2 μg/ml to 2 μg/ml of crystallin proteins, with a maximum effect at 0.5 μg/ml with negligible cell death as determined by trypan-blue exclusion. […]

[3] = system: Human Retinal Endothelial Cells (HREC); assay: Matrigel tube formation in cultured human retinal endothelial cells; assay type: cell-based; settings: exogenously applied protein, Matrigel pre-coated plates, VEGF omitted from media supplement
Method: HREC were cultured in EGM2MV media according to the manufacturer's protocol either in the absence (FIG. 25A), or presence (FIG. 25B) of pre-coated Matrigel matrix (Cambrex). (4× magnification)
FIG. 28 is a graph showing the effect of Exogenous γ-crystallins, VEGF, and PEDF on Tube Length in Cultured Human Retinal Endothelial Cells (HREC): HREC grown on Matrigel-coated tissue culture plates in EGM2MV media with VEGF omitted from the media supplement. Cells were treated with BSA (control), 0.2 μg/ml VEGF, 0.6 μg/ml VEGF, concentrations of […] ranging from 0.5 μg/ml to 1.0 μg/ml, or 0.2 μg/ml PEDF. Average tube length was calculated after measuring all of the tubes formed in three separate optical fields from 7 individual culture dishes.
As reported above, a functionally significant effect of β/γ crystallins on vascular remodeling the effect of β/γ crystallins was established on human umbilical vein endothelial cells (HUVEC) in culture. Because the behavior of vascular endothelial cells varies according to their source and the resident tissue environment, the effect of β/γ crystallins on cultured human retinal endothelial cells (HREC) was subsequently analyzed. […] FIG. 28 quantifies these effects.

[4] = system: Human Retinal Endothelial Cells (HREC); settings: relatively high dose tested (0.2 μg/ml PEDF); cited from earlier work

O=C(O)CC[N+](=O)[O-] [3-NP, 3-nitropropionic acid]
VEGF expression (immunostaining) ([1]; 6 hours): induction; also recorded: distinct cytoplasmic staining | β- and γ-crystallin expression (immunostaining) ([1]; 6 hours): induction; also recorded: distinct cytoplasmic staining | VEGF antibody fluorescence ([1]; 12 hours): increased | γ-crystallin antibody fluorescence ([1]; 12 hours): increased | cell death ([1]; 24 hours): most of the cells have died

VEGF
tube length (tube processes) [2]: longer tubes | HREC vessel-like tube formation [3]: enhanced

B1: PEDF: PEDF added at 0.2 μg/ml to HREC cultures (protein, UniProt P36955 20-418, looked up)
Pigment epithelium-derived …: QNPASPPEEGSPDPDSTGALVEEEDPFFKVPVNKLAAAVSNFGYDLYRVRSSTSPTTNVLLSPLSVATALSALSLGAEQRTESIIHRALYYDLISSPDIHGTYKELLDTVTAPQKNLKSASRIVFEKKLRIKSSFVAPLEKSYGTRPRVLTGNPRLDLQEINNWVQAQMKGKLARSTKEIPDEISILLLGVAHFKGQWVTKFDSRKTSLEDFYLDEERTVRVPMMSDPKAVLRYGLDSDLSCKIAQLPLTGSMSIIFFLPLKVTQNLTLIEESLTSEFIHDIDRELKTVQAVLTVPKLKLSYEGEVTKSLQEMKLQSLFDSPDFSKITGKPIKLTQVEHRAGFEWNEDGAGTTPSPGLQPAHLTFPLDYHLNQPFIFVLRDTDTGALLFIGKILDPRGP
tube formation [4]: stimulate tube formation
